The subject of assay [1] is Human immunodeficiency virus. The assay can be described thus: Antiviral activity against HIV infected in human CEM-SS cells. The format is functional, organism-based. As to conditions: Human immunodeficiency virus 1, CEM-SS.
Another assay relates to CEM-SS. The assay can be described thus: Cytotoxicity against human CEM-SS cells. The format is cell-based.

Values after ≈ are worked out from the molar mass of the structure shown.

Compound `Oc1ccc([C@H]2c3c(O)cc(O)cc3[C@@H]3c4c(cc(O)cc4[C@]2(O)[C@@]2(O)c4cc(O)cc5c4[C@@H](c4cc(O)cc(O)c4[C@@H]2c2ccc(O)cc2)[C@H](c2ccc(O)cc2)O5)O[C@H]3c2ccc(O)cc2)cc1` [DIBALANOCARPOL] registered a concentration giving a half-maximal response (EC50) in assay [1] of 46 µg/mL (≈ 49 µM).
On the same count and under the same terms, the same measure for `Oc1ccc([C@H]2c3c(O)cc(O)cc3[C@@H]3c4c(cc(O)cc4[C@H]2O)O[C@H]3c2ccc(O)cc2)cc1` [BALANOCARPOL]: 20 µg/mL (≈ 42.5 µM).
Take `Oc1ccc([C@H]2c3c(O)cc(O)c(O)c3-c3c(-c4ccc(O)c(O)c4)oc4cc(O)cc(c34)[C@@H]2O)cc1` [MALIBATOL B]: the IC50 with CEM-SS is 21 µg/mL (≈ 42 µM).
The same measure, in the same setting: the same measure for `Oc1ccc(-c2oc3cc(O)cc4c3c2-c2cc(O)cc(O)c2[C@H](c2ccc(O)cc2)[C@H]4O)cc1` [MALIBATOL A]: 13 µg/mL (≈ 27.8 µM).

Usually EC50 stands for the concentration needed to bring the measured effect to its halfway point. High values mean weaker potency, low ones greater potency. One may read the IC50 as the concentration that gives 50% inhibition. A higher IC50 goes with weaker potency in that assay.

For the origin of these results see ChEMBL document CHEMBL1141735, “HIV-inhibitory and cytotoxic oligostilbenes from the leaves of Hopea malibato” (J Nat Prod, 1998).
